Source: ChEMBL document CHEMBL5120903, “Constituents of Croton megalocarpus with Potential Anti-HIV Activity” (J Nat Prod, 2022)

Experiments:
[1] = Cytotoxicity against human MT4 cells and measured after 5 days by MTT assay; format: toxicity, cell-based
[2] = target: Human immunodeficiency virus type 1 protease (Human immunodeficiency virus 1) (UniProt Q72874); experiment: Inhibition of HIV-1 protease at 10 ug/ml by fluorescence based plate reader assay relative to control; conditions: dose 10.0 µg/ml
[3] = Cytotoxicity against human FM55M1 cells assessed as reduction in cell viability measured upto 50 uM incubated for 72 hrs by cell titre 96 reagent based plate reader analysis; format: toxicity; conditions: fm55m1, 72 h
[4] = test system: Human immunodeficiency virus 1; experiment: Anti-retroviral activity against HIV-1 IIIB infected in human MT4 cells assessed as inhibition of viral replication and measured after 5 days by MTT assay; format: functional, organism-based; conditions: Human immunodeficiency virus 1, IIIB, MT4, 120 h

inhibition [2] | Structure (SMILES) | IC50 at 5 days [1] | Activity [3] | IC50 [4]
63% | C=C1CC[C@@H]2OC(=O)C(C)=C2[C@@H]2[C@@H]1[C@@]13O[C@@]1([C@@H](Cl)[C@@H](C)[C@H]3OC(C)=O)[C@@H](O)[C@@]2(C)O | 209 µM | Non-Toxic | 0.028 µM
75% | C=C1CC[C@]2(O)OC(=O)C(C)=C2[C@@H]2[C@@H]1[C@@]13O[C@@]1(C[C@@H](C)[C@H]3O)[C@H]1O[C@@]21C | 510 µM | Non-Toxic | 0.0055 µM
